# Measured values as given in patent US5321039A, “Method of inducing a histamine agonist action on H2 receptors” (Societe Civile Bioprojet, priority 1990, dated 1994).
# pEC50: −log10 of the molar value.
# Columns and labels:
# [1] = test system: histamine H2 receptor; conditions: Sterk et al.; cited from earlier work
# [2] = molecular target: T1, H3 receptor (Rattus norvegicus, UniProt Q9QYN8); test: inhibition of liberation and synthesis of endogenous histamine from depolarized brain sections (H3 agonism); type: cell-based; conditions: for potency relative to histamine (times more powerful): H3 agonist
# T1 construct: liberation and synthesis of endogenous histamine from depolarized brain sections; from tissue; host or cells: brain sections (slices)
# [3] = test system: histamine H3 receptor; conditions: EP-A-0 420 396; cited from earlier work
# [4] = test system: secretion of gastric acid which is stimulated by histamine; conditions: opposes action of histamine; Ganellin; cited from earlier work
# [5] = test system: histamine synthesis in the brain of rats; test: inhibition of histamine synthesis in vivo (brain, peripheral organs)
# T1 sequence (Q9QYN8 whole entry): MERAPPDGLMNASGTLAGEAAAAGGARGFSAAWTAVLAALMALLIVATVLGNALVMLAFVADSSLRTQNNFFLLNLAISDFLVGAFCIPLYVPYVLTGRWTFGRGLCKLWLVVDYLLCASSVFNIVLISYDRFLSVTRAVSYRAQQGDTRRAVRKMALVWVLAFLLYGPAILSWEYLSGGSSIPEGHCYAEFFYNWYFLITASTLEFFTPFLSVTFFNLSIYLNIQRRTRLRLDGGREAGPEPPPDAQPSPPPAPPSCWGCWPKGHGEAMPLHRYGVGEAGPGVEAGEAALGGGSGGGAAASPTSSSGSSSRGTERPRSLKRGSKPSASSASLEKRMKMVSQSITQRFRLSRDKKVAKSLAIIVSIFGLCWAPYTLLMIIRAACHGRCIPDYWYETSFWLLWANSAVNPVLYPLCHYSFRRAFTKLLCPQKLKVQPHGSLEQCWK
Structure (SMILES),concentration stimulating the H2 receptor [1],partial agonist efficacy at histamine H2 receptor [1],type of agonism on the H3 receptor [2],potency relative to histamine (times more powerful) [2],concentration for H3 relative to that necessary for engagement of the H2 receptor (times lower) ([2]; H3 versus H2),concentration stimulating the H3 receptor ([2]; depolarized brain sections),H3 agonist potency and selectivity in words [3],50% inhibiting dose on rat gastric secretion [4],crossing of the blood-brain barrier ([5]; inferred from brain effect at oral 3 mg/kg in rats),"inhibition of histamine synthesis in peripheral organs such as the lungs ([5]; peripheral organs, lungs)","inhibition of histamine synthesis in the brain ([5]; rats, oral dose of 3 mg/kg)",pEC50 ([2]; read-out: EC50 as H3 agonist),H3 agonist activity in vivo ([5]; in vivo test not specified)
"N=C(N)SCCc1cnc[nH]1 [Compound I, S-[2-(4(5)-imidazolyl)-ethyl] isothiourea]",about 0.1 mM,50%,full histamine agonist,62 times,"about 100,000 times",about 1 nanomolar,highly potent selective histamine H3 -agonists,about 200 μmoles/kg,adequately crosses the blood-brain barrier,inhibits at a very low dose,maximum inhibition,,
"N=C(N)CCCc1c[nH]cn1 [Compound III, 4-(4(5)-imidazolyl) butyramidine]",,,,,,,highly potent selective histamine H3 -agonists,,,,,,
CN=C(N)SCCc1c[nH]cn1 [Compound II],,,full and comparatively powerful,about 6 times,,,,,,,,8.00,active in vivo
